The results in this text go back to patent US10537558B2 (Bantam Pharmaceutical, LLC, priority 2015, dated 2020).

SMILES strings stand for the structures. pEC50: −log10 of the molar value. Bounds are passed on as bounds.

The subject of one experiment is BJAB cells. Nature of the experiment: BJAB cell proliferation (Cell Titer Glo). The experiment is classed as cell-based.
Conditions: not given
An outline of the steps: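 BJAB cells exposed to serially diluted compounds (0.1% DMSO final) for about 72 h at 37 °C. Proliferation read by Cell Titer Glo luminescence as percent of untreated controls; EC50 from non-linear regression of dose-response data.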
A general note: In ATP-based viability assays light output follows the ATP content of the culture.
As for `Cc1nn(-c2nc(-c3ccc(C#N)cc3)c(SC(C)C)s2)c(C(=O)O)c1-c1cccc(F)c1` [Compound 213, 1-(4-(4-cyanophenyl)-5-(isopropylthio)thiazol-2-yl)-4-(3-fluorophenyl)-3-methyl-1H-pyrazole-5-carboxylic acid], the EC50 result was “C-”.

The experiment is the same for the next values; noted with them: Homo sapiens, read-out: EC50.
For `Cc1nn(-c2nc(-c3cncc(C#N)c3)c(SC(C)C)s2)c(C(=O)O)c1-c1cccc(F)c1` [Compound 210, 1-(4-(5-cyanopyridin-3-yl)-5-(isopropylthio)thiazol-2-yl)-4-(3-fluorophenyl)-3-methyl-1H-pyrazole-5-carboxylic acid], the pEC50 was less than 4.40.

As for `Cc1cc(-c2nc(-n3nc(C)c(-c4cccc(F)c4)c3C(=O)O)sc2SC(C)C)n(C)n1` [Compound 211, 1-(4-(1,3-dimethyl-1H-pyrazol-5-yl)-5-(isopropylthio)thiazol-2-yl)-4-(3-fluorophenyl)-3-methyl-1H-pyrazole-5-carboxylic acid], the negative logarithm of the EC50 (pEC50) is less than 4.40.

Consider `Cc1nn(-c2nc(-c3cncnc3)c(SC(C)C)s2)c(C(=O)O)c1-c1cccc(F)c1` [Compound 212, 4-(3-fluorophenyl)-1-(5-(isopropylthio)-4-(pyrimidin-5-yl)thiazol-2-yl)-3-methyl-1H-pyrazole-5-carboxylic Acid], for which the pEC50 is less than 4.40.

For `Cc1ccc(-c2nc(-n3nc(C)c(-c4cccc(F)c4)c3C(=O)O)sc2SC(C)C)cc1F` [Compound 214, 1-(4-(3-fluoro-4-methylphenyl)-5-(isopropylthio)thiazol-2-yl)-4-(3-fluorophenyl)-3-methyl-1H-pyrazole-5-carboxylic acid], the negative-log EC50 (pEC50) was 5.30 to 6.00.

In the case of `Cc1nn(-c2nc(-c3ccccc3C#N)c(SC(C)C)s2)c(C(=O)O)c1-c1cccc(F)c1` [Compound 215, 1-(4-(2-cyanophenyl)-5-(isopropylthio)thiazol-2-yl)-4-(3-fluorophenyl)-3-methyl-1H-pyrazole-5-carboxylic acid], the pEC50 is 4.30 to 4.60.

Consider `Cc1cc(Cl)ccc1-c1nc(-n2nc(C)c(-c3cccc(F)c3)c2C(=O)O)sc1SC(C)C` [Compound 216, 1-(4-(4-chloro-2-methylphenyl)-5-(isopropylthio)thiazol-2-yl)-4-(3-fluorophenyl)-3-methyl-1H-pyrazole-5-carboxylic acid], for which the pEC50 is greater than 6.00.

In the case of `Cc1cc(C(F)(F)F)ccc1-c1nc(-n2nc(C)c(-c3cccc(F)c3)c2C(=O)O)sc1SC(C)C` [Compound 217, 4-(3-fluorophenyl)-1-(5-(isopropylthio)-4-(2-methyl-4-(trifluoromethyl)phenyl)thiazol-2-yl)-3-methyl-1H-pyrazole-5-carboxylic acid], the pEC50 is greater than 6.00.

Regarding `Cc1nn(-c2nc(-c3ccc(Cl)c(C#N)c3)c(SC(C)C)s2)c(C(=O)O)c1-c1cccc(F)c1` [Compound 218, 1-(4-(4-chloro-3-cyanophenyl)-5-(isopropylthio)thiazol-2-yl)-4-(3-fluorophenyl)-3-methyl-1H-pyrazole-5-carboxylic Acid], the pEC50 was 5.00 to 5.30.

`Cc1nn(-c2nc(-c3ccc(C(F)(F)F)cc3)c(SC(C)C)s2)c(C(=O)O)c1-c1cc(Cl)cc(Cl)c1` [Compound 219, 4-(3,5-dichlorophenyl)-1-(5-(isopropylthio)-4-(4-(trifluoromethyl)phenyl)thiazol-2-yl)-3-methyl-1H-pyrazole-5-carboxylic Acid]: the pEC50 was greater than 6.00.

Consider `COCCNC(=O)c1ccc(-c2nc(-n3nc(C)c(-c4cccc(F)c4)c3C(=O)O)sc2SC(C)C)cc1` [Compound 220, 4-(3-fluorophenyl)-1-(5-(isopropylthio)-4-(4-((2-methoxyethyl)carbamoyl)phenyl)thiazol-2-yl)-3-methyl-1H-pyrazole-5-carboxylic Acid], for which the pEC50 was less than 4.40.

`Cc1nn(-c2nc(-c3ccc(C(=O)N(C)C)cc3)c(SC(C)C)s2)c(C(=O)O)c1-c1cccc(F)c1` [Compound 221, 1-(4-(4-(dimethylcarbamoyl)phenyl)-5-(isopropylthio)thiazol-2-yl)-4-(3-fluorophenyl)-3-methyl-1H-pyrazole-5-carboxylic acid]: the pEC50 was less than 4.40.

For the compound `Cc1cc(OC(F)(F)F)ccc1-c1nc(-n2nc(C)c(-c3cccc(F)c3)c2C(=O)O)sc1SC(C)C` [Compound 224, 4-(3-fluorophenyl)-1-(5-(isopropylthio)-4-(2-methyl-4-(trifluoromethoxy)phenyl)thiazol-2-yl)-3-methyl-1H-pyrazole-5-carboxylic acid], the pEC50 is greater than 6.00.

Consider `Cc1nn(-c2nc(-c3ccc(Cl)c(Cl)c3)c(SC(C)C)s2)c(C(=O)O)c1-c1cc(F)cc(Cl)c1` [Compound 225, 4-(3-chloro-5-fluorophenyl)-1-(4-(3,4-dichlorophenyl)-5-(isopropylthio)thiazol-2-yl)-3-methyl-1H-pyrazole-5-carboxylic acid], for which the pEC50 is greater than 6.00.

On to `Cc1cc(-c2nc(-n3nc(C)c(-c4cccc(F)c4)c3C(=O)O)sc2SC(C)C)ccc1C#N` [Compound 226, 1-(4-(4-cyano-3-methylphenyl)-5-(isopropylthio)thiazol-2-yl)-4-(3-fluorophenyl)-3-methyl-1H-pyrazole-5-carboxylic acid], for which the pEC50 was 5.00 to 5.30.

For `Cc1nn(-c2nc(-c3ccc(Cl)c(Cl)c3)c(F)s2)c(C(=O)O)c1-c1cccc(F)c1` [Compound 227, 1-(4-(3,4-dichlorophenyl)-5-fluorothiazol-2-yl)-4-(3-fluorophenyl)-3-methyl-1H-pyrazole-5-carboxylic acid], the pEC50 is 4.60 to 5.00.

Take `CC(C)Sc1sc(-n2nc(C(C)C)c(-c3cccc(F)c3)c2C(=O)O)nc1-c1ccc(Cl)c(Cl)c1` [Compound 228, 1-(4-(3,4-dichlorophenyl)-5-(isopropylthio)thiazol-2-yl)-4-(3-fluorophenyl)-3-isopropyl-1H-pyrazole-5-carboxylic Acid]: the negative logarithm of the EC50 (pEC50) was 5.30 to 6.00.

In the case of `Cc1nn(-c2nc(-c3ccc(C(F)F)cc3)c(SC(C)C)s2)c(C(=O)O)c1-c1cccc(F)c1` [Compound 229, 1-(4-(4-(difluoromethyl)phenyl)-5-(isopropylthio)thiazol-2-yl)-4-(3-fluorophenyl)-3-methyl-1H-pyrazole-5-carboxylic acid], the pEC50 was 5.30 to 6.00.

On to `Cc1nn(-c2nc(-c3ccc(Cl)c(Cl)c3)c(OC(C)C)s2)c(C(=O)O)c1-c1cccc(F)c1` [Compound 230, 1-(4-(3,4-dichlorophenyl)-5-isopropoxythiazol-2-yl)-4-(3-fluorophenyl)-3-methyl-1H-pyrazole-5-carboxylic acid], for which the pEC50 was 5.00 to 5.30.

For the compound `CCc1ccc(-c2nc(-n3nc(C)c(-c4cccc(F)c4)c3C(=O)O)sc2SC(C)C)cc1` [Compound 231, 1-(4-(4-ethylphenyl)-5-(isopropylthio)thiazol-2-yl)-4-(3-fluorophenyl)-3-methyl-1H-pyrazole-5-carboxylic Acid], the pEC50 is 5.30 to 6.00.

Take `Cc1cc(-c2c(C)nn(-c3nc(-c4ccc(C(F)(F)F)cc4)c(SC(C)C)s3)c2C)cc(C)n1` [Compound 232, 2-(4-(2,6-dimethylpyridin-4-yl)-3,5-dimethyl-1H-pyrazol-1-yl)-5-(isopropylthio)-4-(4-(trifluoromethyl)phenyl) thiazole]: the pEC50 was 4.30 to 4.60.

With `Cc1nn(-c2nc(-c3cncc(F)c3)c(SC(C)C)s2)c(C(=O)O)c1-c1cccc(F)c1` [Compound 233, 4-(3-fluorophenyl)-1-(4-(5-fluoropyridin-3-yl)-5-(isopropylthio)thiazol-2-yl)-3-methyl-1H-pyrazole-5-carboxylic Acid], the pEC50 was less than 4.40.

On to `Cc1nn(-c2nc(-c3coc4ccccc34)c(SC(C)C)s2)c(C(=O)O)c1-c1cccc(F)c1` [Compound 234, 1-(4-(benzofuran-3-yl)-5-(isopropylthio)thiazol-2-yl)-4-(3-fluorophenyl)-3-methyl-1H-pyrazole-5-carboxylic Acid], for which the pEC50 is less than 4.40.

On to `Cc1nn(-c2nc(-c3ccc(C(F)(F)F)cc3)c(SC(C)C)s2)c(C(=O)O)c1-c1ccc(F)c(F)c1` [Compound 235, 4-(3,4-difluorophenyl)-1-(5-(isopropylthio)-4-(4-(trifluoromethyl)phenyl)thiazol-2-yl)-3-methyl-1H-pyrazole-5-carboxylic acid], for which the pEC50 is greater than 6.00.

For `Cc1cc(-c2c(C)nn(-c3nc(-c4ccc(C(F)(F)F)cc4)c(SC(C)C)s3)c2C(=O)O)ccc1F` [Compound 236, 4-(4-fluoro-3-methylphenyl)-1-(5-(isopropylthio)-4-(4-(trifluoromethyl)phenyl)thiazol-2-yl)-3-methyl-1H-pyrazole-5-carboxylic Acid], the pEC50 was 5.30 to 6.00.

In the case of `Cc1nn(-c2nc(-c3ccc(C(F)(F)F)cc3)c(SC(C)C)s2)c(C(=O)O)c1-c1ccc(F)cc1` [Compound 237, 4-(4-fluorophenyl)-1-(5-(isopropylthio)-4-(4-(trifluoromethyl)phenyl)thiazol-2-yl)-3-methyl-1H-pyrazole-5-carboxylic acid], the pEC50 is 5.30 to 6.00.

Take `COc1cc(-c2c(C)nn(-c3nc(-c4ccc(C(F)(F)F)cc4)c(SC(C)C)s3)c2C(=O)O)ccc1F` [Compound 238, 4-(4-fluoro-3-methoxyphenyl)-1-(5-(isopropylthio)-4-(4-(trifluoromethyl)phenyl)thiazol-2-yl)-3-methyl-1H-pyrazole-5-carboxylic acid]: the pEC50 was 5.30 to 6.00.

On to `Cc1cc(Cl)cc(C)c1-c1nc(-n2nc(C)c(-c3cccc(F)c3)c2C(=O)O)sc1SC(C)C` [Compound 239, 1-(4-(4-chloro-2,6-dimethylphenyl)-5-(isopropylthio)thiazol-2-yl)-4-(3-fluorophenyl)-3-methyl-1H-pyrazole-5-carboxylic Acid], for which the pEC50 was 5.00 to 5.30.

On to `Cc1nn(-c2nc(-c3ccc(C(C)(F)F)cc3)c(SC(C)C)s2)c(C(=O)O)c1-c1cccc(F)c1` [Compound 240, 1-(4-(4-(1,1-difluoroethyl)phenyl)-5-(isopropylthio)thiazol-2-yl)-4-(3-fluorophenyl)-3-methyl-1H-pyrazole-5-carboxylic acid], for which the negative-log EC50 (pEC50) is 5.30 to 6.00.

One may read the pEC50 as the EC50 on a negative log10 scale, so that one unit is a factor of ten.
